The results in this text go back to patent US8921368B2, “Pyrrolopyridazine JAK3 inhibitors and their use for the treatment of inflammatory and autoimmune diseases” (Bristol-Myers Squibb Company, priority 2011, dated 2014).

One assay addresses JAK3 (Homo sapiens (Human), UniProt P52333). Description: JAK3 Kinase Assay (Caliper / Filter protocols). To be noted: JAK3 kinase inhibition; ATP 8 μM; read-out: LLE_JAK3_FB (IC50). The format is biochemical. Here is the method: JAK3 Kinase Assay Protocol (Caliper)
The assay reactions were performed in U-bottom 384-well plates. […] The reaction was initiated by the combination of GST-JAK3 enzyme with substrates and test compounds. The reactions were incubated at room temperature for 3 hours and terminated by adding 60 μl of 35 mM EDTA to each sample. […] Compounds were dissolved at 10 mM in dimethylsulfoxide (DMSO) and evaluated at eleven concentrations. IC50 values were derived by non-linear regression analysis.
JAK3 Kinase Assay Protocol (Filter)
Kinase reactions consisted of 5 ng of JAK3 enzyme, 30 uM CSKtide substrate, 0.2 μCi ^33P γ-ATP, 8 μM ATP in 30 μl kinase buffer (50 mM Hepes, pH 8.0, 10 mM MgCl2, 1 mM EGTA, 2 mM DTT). Reactions were incubated for 30 minutes at room temperature and stopped by the addition of cold trichloroacetic acid (TCA) to a final concentration of 15%. TCA precipitates were collected onto 384 well phosphocellulose filters (Millipore) using a Platemate to transfer the reaction mixture, washed on an EMBLA plate washer and the filters were quantitated using a TopCount 384-well liquid scintillation counter. […] Compounds were dissolved at 10 mM in dimethylsulfoxide (DMSO) and evaluated at six concentrations, each in triplicate. The final concentration of DMSO in the assay equaled 2%. IC50 values were derived by non-linear regression analysis.

A further assay addresses JAK1 (Homo sapiens (Human), UniProt P23458). Description: JAK1 Kinase Assay Protocol. The format is biochemical. Particulars: GST-JAK1; ATP 100 μM; Caliper LabChip; read-out: LLE_JAK1 (IC50). As to the method: JAK1 Kinase Assay Protocol
The assay reactions were performed in U-bottom 384-well plates. The final assay volume was 30 μl prepared from 15 μl additions of enzyme and substrates (fluoresceinated peptide and ATP) and test compounds in assay buffer (20 mM HEPES pH 7.4, 10 mM MgCl2, 25 mM beta-glycerol phosphate, 0.015% Brij35 and 4 mM DTT). The reaction was initiated by the combination of GST-JAK1 enzyme with substrates and test compounds. The reactions were incubated at room temperature for 3 hours and terminated by adding 60 μl of 35 mM EDTA to each sample. […] The final concentration of reagents in the assays was: ATP, 100 μM; fluoresceinated peptide, 1.5 μM; GST-JAK1, 12.5 nM; and DMSO, 1.6%. […] Compounds were dissolved at 10 mM in dimethylsulfoxide (DMSO) and evaluated at eleven concentrations. IC50 values were derived by non-linear regression analysis.

Sequence of JAK1 (P23458 whole entry): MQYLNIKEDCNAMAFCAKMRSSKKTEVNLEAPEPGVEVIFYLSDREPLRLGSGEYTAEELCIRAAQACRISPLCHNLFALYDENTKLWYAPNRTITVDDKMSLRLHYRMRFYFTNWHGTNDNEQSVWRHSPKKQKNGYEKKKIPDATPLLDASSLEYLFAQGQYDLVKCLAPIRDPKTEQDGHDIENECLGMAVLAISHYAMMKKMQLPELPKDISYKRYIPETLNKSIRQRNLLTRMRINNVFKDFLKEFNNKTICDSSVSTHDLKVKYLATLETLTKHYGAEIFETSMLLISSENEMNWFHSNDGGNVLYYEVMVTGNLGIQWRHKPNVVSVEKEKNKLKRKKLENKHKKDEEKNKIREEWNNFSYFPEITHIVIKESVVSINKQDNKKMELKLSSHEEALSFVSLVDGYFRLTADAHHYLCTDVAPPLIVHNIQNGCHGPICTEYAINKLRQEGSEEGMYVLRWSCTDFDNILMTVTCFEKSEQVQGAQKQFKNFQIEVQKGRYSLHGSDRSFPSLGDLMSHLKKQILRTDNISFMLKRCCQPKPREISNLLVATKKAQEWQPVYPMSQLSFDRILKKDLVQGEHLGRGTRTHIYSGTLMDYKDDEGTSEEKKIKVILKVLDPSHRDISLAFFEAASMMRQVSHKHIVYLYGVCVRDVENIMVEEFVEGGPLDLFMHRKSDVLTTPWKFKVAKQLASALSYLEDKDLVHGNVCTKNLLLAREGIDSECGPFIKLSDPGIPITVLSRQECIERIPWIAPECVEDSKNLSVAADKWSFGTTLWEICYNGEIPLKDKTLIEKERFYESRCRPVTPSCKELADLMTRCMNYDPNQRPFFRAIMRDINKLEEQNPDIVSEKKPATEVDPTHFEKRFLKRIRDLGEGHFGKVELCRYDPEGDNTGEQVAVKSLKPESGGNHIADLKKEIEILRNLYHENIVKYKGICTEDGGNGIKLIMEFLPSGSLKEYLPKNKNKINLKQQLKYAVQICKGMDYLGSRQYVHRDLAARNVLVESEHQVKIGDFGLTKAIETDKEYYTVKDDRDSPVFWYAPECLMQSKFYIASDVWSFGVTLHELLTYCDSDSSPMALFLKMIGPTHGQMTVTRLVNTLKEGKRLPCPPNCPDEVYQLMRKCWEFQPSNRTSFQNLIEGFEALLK
Sequence of JAK3 (P52333 whole entry): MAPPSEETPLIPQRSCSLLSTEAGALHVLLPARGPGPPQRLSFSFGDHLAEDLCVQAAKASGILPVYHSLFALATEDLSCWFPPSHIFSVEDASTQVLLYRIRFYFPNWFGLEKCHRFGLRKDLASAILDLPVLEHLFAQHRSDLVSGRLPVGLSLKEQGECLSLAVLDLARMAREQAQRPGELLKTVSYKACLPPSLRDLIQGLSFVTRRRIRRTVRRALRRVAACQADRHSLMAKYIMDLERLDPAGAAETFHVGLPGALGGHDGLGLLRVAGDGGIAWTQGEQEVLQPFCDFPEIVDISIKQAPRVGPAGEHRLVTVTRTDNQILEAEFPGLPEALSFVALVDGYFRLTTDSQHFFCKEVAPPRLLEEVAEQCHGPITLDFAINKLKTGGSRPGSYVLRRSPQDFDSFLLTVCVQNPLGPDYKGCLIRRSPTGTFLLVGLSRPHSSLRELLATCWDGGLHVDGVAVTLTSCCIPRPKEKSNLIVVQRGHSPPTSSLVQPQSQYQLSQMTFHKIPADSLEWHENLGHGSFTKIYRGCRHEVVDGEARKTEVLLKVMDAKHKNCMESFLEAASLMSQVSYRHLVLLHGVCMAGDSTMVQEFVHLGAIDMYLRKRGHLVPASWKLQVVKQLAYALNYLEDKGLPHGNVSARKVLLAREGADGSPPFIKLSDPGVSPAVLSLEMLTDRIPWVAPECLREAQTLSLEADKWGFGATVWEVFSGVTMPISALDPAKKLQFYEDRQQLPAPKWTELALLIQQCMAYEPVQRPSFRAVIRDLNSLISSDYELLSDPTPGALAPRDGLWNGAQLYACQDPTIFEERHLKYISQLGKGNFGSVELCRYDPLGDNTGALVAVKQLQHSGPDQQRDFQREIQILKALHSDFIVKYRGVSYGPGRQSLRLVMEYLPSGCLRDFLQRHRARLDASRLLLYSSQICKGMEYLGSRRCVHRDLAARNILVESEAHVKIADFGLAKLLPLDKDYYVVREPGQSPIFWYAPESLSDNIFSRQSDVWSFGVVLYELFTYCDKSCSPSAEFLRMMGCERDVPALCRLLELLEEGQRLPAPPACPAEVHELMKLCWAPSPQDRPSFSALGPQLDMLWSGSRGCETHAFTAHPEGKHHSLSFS

What is called IC50 is the midpoint of a concentration-inhibition curve. `CC1(C)[C@H](Nc2c(C(N)=O)cnn3cc(-c4ccccc4)cc23)CC[C@]1(C)NS(C)(=O)=O` [Example 129]: the values for the IC50 at JAK3 and on JAK1 were 1 nM and 2.6 nM, respectively.

Turning to `CC1(C)[C@H](Nc2c(C(N)=O)cnn3cc(N4CCCC4=O)cc23)CC[C@]1(C)N` [Example 328], the IC50 at JAK3 amounted to 1.7 nM; on JAK1, 20.2 nM. In the same order, the values of `C[C@]1(O)CC[C@@H](Nc2c(C(N)=O)cnn3cc(-c4cncnc4)cc23)CC1` [Example 168, 4-((cis-4-hydroxy-4-methylcyclohexyl)amino)-6-(5-pyrimidinyl)pyrrolo [1,2-b]pyridazine-3-carboxamide] are 17.1 nM and 105 nM. On the same counts, the results for `CCS(=O)(=O)Nc1cc2c(N[C@@H]3CC[C@@](C)(O)C3(C)C)c(C(N)=O)cnn2c1` (racemic) [Example 25] are 8.1 nM and 83.9 nM. In the same order, the values of `CC1(C)[C@H](Nc2c(C(N)=O)cnn3cc(NS(=O)(=O)c4ccccc4)cc23)CC[C@@]1(C)O` (racemic) [Example 22] are 22.1 nM and 239 nM. Regarding `CC1(C)[C@H](Nc2c(C(N)=O)cnn3cc(-c4ccccc4C(N)=O)cc23)CC[C@]1(C)N` [Example 255, 4-(((1R,3S)-3-amino-2,2,3-trimethylcyclopentyl)amino)-6-(2-carbamoylphenyl)pyrrolo [1,2-b]pyridazine-3-carboxamide], the IC50 at JAK3 stood at 6 nM; at JAK1, 2.7 nM. `CN(C)C(=O)c1ccc(-c2cc3c(N[C@@H]4CC[C@](C)(N)C4(C)C)c(C(N)=O)cnn3c2)cc1` [Example 266, 4-(((1R,3S)-3-amino-2,2,3-trimethylcyclopentyl)amino)-6-(4-(dimethylcarbamoyl)phenyl)pyrrolo[1,2-b]pyridazine-3-carboxamide]: the figures for the half-maximal inhibitory concentration (IC50) on JAK3 and on JAK1 were 0.8 nM and 0.6 nM, respectively. Turning to `CC1(C)[C@H](Nc2c(C(N)=O)cnn3cc(-c4cncc(C(=O)O)c4)cc23)CC[C@]1(C)N` [Example 276, 5-(4-(((1R,3S)-3-amino-2,2,3-trimethylcyclopentyl)amino)-3-carbamoylpyrrolo[1,2-b]pyridazin-6-yl)nicotinic acid], the IC50 turned out to be 15 nM at JAK3 and 35.2 nM at JAK1. `NC(=O)c1cnn2cc(-c3ccc(F)cc3)cc2c1NC12CC3CC(O)(CC(O)(C3)C1)C2` [Example 298, 4-((3,5-dihydroxyadamantan-1-yl)amino)-6-(4-fluorophenyl)pyrrolo [1,2-b]pyridazine-3-carboxamide]: the IC50 at JAK3 came out at 4.7 nM; on JAK1, 2.1 nM. On the same counts, the results for `C[C@]1(F)CCC[C@H]1Nc1c(C(N)=O)cnn2cc(-c3cccc(C(N)=O)c3)cc12` (racemic) [Example 94] are 0.5 nM and 1.4 nM. In the same order, the values of `CC(=O)Nc1cc2c(N[C@@H]3CC[C@@](C)(O)C3(C)C)c(C(N)=O)cnn2c1` (racemic) [Example 7] are 0.9 nM and 8.2 nM.

Take `CC1(C)[C@H](Nc2c(C(N)=O)cnn3cc(N4CCOCC4=O)cc23)CC[C@]1(C)N` [Example 312, 4-(((1R,3S)-3-amino-2,2,3-trimethylcyclopentyl)amino)-6-(3-oxo-4-morpholinyl)pyrrolo[1,2-b]pyridazine-3-carboxamide]: the values for the IC50 on JAK3 and on JAK1 were 44.2 nM and 69.4 nM, respectively. On the same counts, the results for `COc1ccc(-c2cc3c(N[C@@H]4CC[C@](C)(NS(C)(=O)=O)C4(C)C)c(C(N)=O)cnn3c2)cn1` [Example 336, 6-(6-methoxy-3-pyridinyl)-4-(((1R,3S)-2,2,3-trimethyl-3-((methylsulfonyl)amino)cyclopentyl)amino)pyrrolo[1,2-b]pyridazine-3-carboxamide] are 1.7 nM and 4.3 nM.

`CC1(C)[C@H](Nc2c(C(N)=O)cnn3cc(-c4ccc(CO)cc4)cc23)CC[C@]1(C)N` [Example 271, 4-(((1R,3S)-3-amino-2,2,3-trimethylcyclopentyl)amino)-6-(4-(hydroxymethyl)phenyl) pyrrolo[1,2-b]pyridazine-3-carboxamide]: the half-maximal inhibitory concentration (IC50) is 0.3 nM on JAK3 and 0.7 nM at JAK1. On the same counts, the results for `CC1(C)[C@H](Nc2c(C(N)=O)cnn3cc(NS(C)(=O)=O)cc23)CC[C@@]1(C)O` (racemic) [Example 3] are 6 nM and 45.8 nM. In the same order, the values of `CC1(C)[C@H](Nc2c(C(N)=O)cnn3cc(-c4ccccc4)cc23)CC[C@@]1(C)O` [Example 293, 4-(((1R,3R)-3-hydroxy-2,2,3-trimethylcyclopentyl)amino)-6-phenylpyrrolo[1,2-b]pyridazine-3-carboxamide] are 0.2 nM and 0.1 nM.

Consider `C[C@]1(O)CC[C@@H](Nc2c(C(N)=O)cnn3cc(-c4cncnc4N)cc23)CC1` [Example 316, 6-(4-amino-5-pyrimidinyl)-4-((cis-4-hydroxy-4-methylcyclohexyl)amino)pyrrolo[1,2-b]pyridazine-3-carboxamide], for which the IC50 came out at 11 nM on JAK3 and 37.3 nM on JAK1. On the same counts, the results for `CC1(C)[C@H](Nc2c(C(N)=O)cnn3cc(-c4cccc5ncccc45)cc23)CC[C@]1(C)N` [Example 272, 4-(((1R,3S)-3-amino-2,2,3-trimethylcyclopentyl)amino)-6-(5-quinolinyl)pyrrolo[1,2-b]pyridazine-3-carboxamide] are 13.8 nM and 5.4 nM. In the same order, the values of `C[C@]1(F)CCC[C@H]1Nc1c(C(N)=O)cnn2cc(N3CCCC3=O)cc12` (racemic) [Example 159] are 0.5 nM and 3.8 nM. In the same order, the values of `CC1(C)[C@@H](Nc2c(C(N)=O)cnn3cc(-c4ccc(C#N)cc4)cc23)CC[C@@]1(C)N` [Example 112] are 9.4 nM and 12.7 nM. With `Cc1ccc(-c2cc3c(NC4C5CC6CC4CC(O)(C6)C5)c(C(N)=O)cnn3c2)cc1` (centres unmarked) [Example 187, 4-((5-hydroxyadamantan-2-yl)amino)-6-(4-methylphenyl)pyrrolo [1,2-b]pyridazine-3-carboxamide], the 50% inhibitory concentration (IC50) at JAK1 is 63.4 nM.

Regarding `COc1cncc(-c2cc3c(N[C@@H]4CC[C@](C)(N)C4(C)C)c(C(N)=O)cnn3c2)c1` [Example 286, 4-(((1R,3S)-3-amino-2,2,3-trimethylcyclopentyl)amino)-6-(5-methoxy-3-pyridinyl)pyrrolo[1,2-b]pyridazine-3-carboxamide], the concentration for half-maximal inhibition (IC50) worked out at 5.5 nM on JAK3 and 4.1 nM on JAK1. On to `Cn1nccc1-c1cc2c(N[C@H]3CC[C@@](C)(O)CC3)c(C(N)=O)cnn2c1` [Example 162, 4-((4-hydroxy-4-methylcyclohexyl)amino)-6-(1-methyl-1H-pyrazol-5-yl)pyrrolo[1,2-b]pyridazine-3-carboxamide], for which the IC50 on JAK3 came out at 62.7 nM.

As for `Cn1nccc1-c1cc2c(NC3C4CC5CC3CC(O)(C5)C4)c(C(N)=O)cnn2c1` (centres unmarked) [Example 185, 4-((5-hydroxyadamantan-2-yl)amino)-6-(1-methyl-1H-pyrazol-5-yl) pyrrolo[1,2-b] pyridazine-3-carboxamide], the IC50 on JAK3 was 6.2 nM. Still for that read-out and setting: for `Cc1cccc(C)c1-c1cc2c(NC3C4CC5CC3CC(O)(C5)C4)c(C(N)=O)cnn2c1` (centres unmarked) [Example 177, 6-(2,6-dimethylphenyl)-4-((5-hydroxyadamantan-2-yl)amino)pyrrolo [1,2-b]pyridazine-3-carboxamide] the value was 524 nM; for `C[C@]1(F)CCC[C@H]1Nc1c(C(N)=O)cnn2cc(-c3cncc4ccccc34)cc12` (racemic) [Example 68], 46.4 nM; for `COc1ccc(S(=O)(=O)Nc2cc3c(N[C@@H]4CC[C@@](C)(O)C4(C)C)c(C(N)=O)cnn3c2)cc1` (racemic) [Example 24], 34.2 nM. Still for that read-out and setting: for `COc1cccc(-c2cc3c(NC4C5CC6CC4CC(O)(C6)C5)c(C(N)=O)cnn3c2)c1` (centres unmarked) [Example 176, 4-((5-hydroxyadamantan-2-yl)amino)-6-(3-methoxyphenyl)pyrrolo [1,2-b]pyridazine-3-carboxamide] the value was 8.9 nM. The same measure, in the same setting: for `COc1ccccc1-c1cc2c(NC3C4CC5CC3CC(O)(C5)C4)c(C(N)=O)cnn2c1` (centres unmarked) [Example 178, 4-((5-hydroxyadamantan-2-yl)amino)-6-(2-methoxyphenyl)pyrrolo [1,2-b]pyridazine-3-carboxamide] the value was 1 nM.
